# Reference: patent US8592421B2, “Cyclic bioisosters of purine system derivatives and a pharmaceutical composition based thereon” (priority 2003, dated 2013)
# Key:
# [1] = Morphine abstinence model: nitrites/nitrates NOX− in blood plasma, liver and brain; assay type: in vivo, rats Wistar; details: 20.0 mg/kg intramuscularly; for Nitrites in liver: control 0.260 ± 0.023; for Nitrites in brain: Cortex of cerebrum: control 4.63 ± 0.29; for Nitrites in brain: Mesencephalon: control 5.66 ± 0.19; for Nitrites in brain: Hypothalamus: control 6.57 ± 0.50; for Nitrites in blood plasma: control 18.30 ± 2.14
# Experimental: The experiments were carried out on rats in series of 7 animals on each compound according to the invention. Non-morphinized animal with not administered with compounds according to the invention were used as a control group. […] Then the rats were decapitated, the blood from somnolent arteries was collected in test tubes with solution EDTA as an anticoagulant, centrifuged at 1500 g for 15 minutes at 4° C.
# To estimate the intensity of metabolism of nitrogen oxide in rats, quantitative determination of stable metabolites of nitrogen oxide—nitrites and nitrates NOX^− in the blood plasma, supernatanates of the liver and thymus gland, a study was conducted by a spectrometric method, and in the brain supernatanates by a […] method.
# (§1) The spectrometric method is based the reaction of nitrites with the Griss reagent (a mixture of 2% solution of sulfanilamide and 0.2% N-(1-naphthyl)ethylene diamine. At the first step the nitrite reacts with sulfanilamide with formation of diazonium salt, and then with the second component to form azo dye with an adsorption maximum at 540 nm. For reduction of nitrates into nitrites, a fermentative method was used with bacterial reductase nitrate (Grisham M. B. et al., 1995). The samples of plasma and supernathant of the liver deproteinizated at 100° C. for 5 minutes incubated for 30 minutes at 37° C. in 50.0 mM of HEPES pH 7.4 in the presence of 0.2 unit/ml of Aspergillus reductase nitrate, 5.0 mkM of FAD and 0.1 mM of NAD-Ph. At the end of the reaction lactate dehydrogenase and pyruvate were added for isolation of NAD-Ph interfering with the Griss reaction. Then the Griss reagent was added and after 10-minute incubation the light absorption of the samples was measured at 540 nm. To amount of NOX^− was calculated using sodium nitrate as a standard.
# The fluorometric method is based on calculation of the nitrite level by the intensity fluorescence of 2,3-diaminonaphthotriazole, a product of reaction of 2,3-diaminonaphthalene (DAN) and nitrite in an acidic medium (Misko T. R., Schilling R. J., Salvemini D. et al. “A fluorometric assay for the measurement of nitrite of biological samples”. Anal. Biochem., 1993, v. 214, p. 11-16). The brain supernatants deproteinizated at 100° C. were placed in a nitrite regenerating system containing 0.125 unit/ml of nitrate reductases, 25 mkM NADPh and 25 mkM FAD prepared in a 20-mM Tris-HCl buffer with pH 7.6 and incubated for 30 minutes at 37° C. The lactate dehydrogenase/pyruvate system was used for oxidation of the NADPh. Then 316 mkM of the DAN solution in 0.62 M of hydrochloric acids were added and the mixture was incubated for 10 minutes in darkness.
# 280 mM of NaOH were added for stabilization of the fluorescence of the formed 2,3-diaminonaphthotriazole. The fluorescence intensity was measured in the spectrofluorimeter Hitachi F-3000 at a wavelength of excitation of 365 nm and an emission of 405 nm. The concentration of NOX^− in the brain was calculated by means of a standard solution of sodium nitrate.
# [2] = Morphine abstinence model: thymus condition (mass, nitrites); assay type: in vivo, rats; details: for Nitrites in thymus supernatant: control 0.331 ± 0.041; for Thymus mass: control 230 ± 14
# From the text: as §1
# The effect of the compounds according to the invention on the condition of the thymus of the rats was also investigated: a control group, an experimental group of morphinized animals and an experimental group of animals were first morphinized and then injected with the compounds according to the invention. The experiment was carried out similarly to that described above.
# [3] = tested on: plasma hemostasis; assay: Partial activated thromboplastin time (PATT) after intravenous administration; assay type: in vivo, rabbit; details: for effect on the PATT: doses 15.0, 30.0, 60.0 mg/kg
# Experimental: The static parameters of the blood and plasma coagulation (partial activated thromboplastin time, thrombin time, maximum coagulation activity (test for auto coagulation) were determined using the Behnk Electronic coagulometer (Germany). The operating principle of this instrument is based on the fact that the formed blood clot breaks the contacts of the pulse counter in the flask-pin circuit, said pin permanently oscillating in a vertical plane. The moment of formation of the clot is registered by stopping the stop watch hand.
# The measurements were effected at a constant temperature of 37° C. maintained by a temperature control unit.
# [4] = Chronic toxicity of suppositories: biochemical indexes of blood serum; assay type: in vivo, rats; details: male rats, suppositories, 1 month; for Cholesterol in blood serum: control 3.02 ± 0.08; for Urea in blood serum: control 8.44 ± 0.60; for Glucose in blood serum: control 9.76 ± 0.15; for ALT in blood serum: control 11.33 ± 1.96; for AST in blood serum: control 19.13 ± 1.02; for Bilirubin in blood serum: control 35.93 ± 2.19; for Creatinine in blood serum: control 40.23 ± 2.84; for Alkalinous phosphatase in blood serum: control 40.74 ± 1.57; for Total protein in blood serum: control 94.89 ± 6.67;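 for all read-outs here: inbred rats dosed rectally with softened suppositories, controls given matching volumes of sterile medical liquid paraffin, serum sampled one month into a two-month dosing course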
# Experimental: The experiments were conducted on inbred rats.
# Two doses of preparations used in the experiments: 50 mg/kg and 500 mg/kg. Before the administration, the suppositories were softened by heating in a glass water bath at a temperature of 38-39° C., the soft mass was collected in tuberculin syringe in a volume of 1 ml, a needle with oliva was attached to the syringe, and the preparatory mass was introduced into the rectum of the animal for a depth of 1.5-2.0 cm. The animals of the control group were administered with sterile medical liquid paraffin in a volume corresponding to the volume of the investigated suppository. A complete course of administration of drugs to the animals was two months. A complex of laboratory diagnostic investigations was carried out one month after the beginning of the administration of the preparation to the animal—in a middle of the course (8 animals), two months after ending the course (8 animals) and three months after ending the recovery period of one month (8 animals). The mass of the body of the rats in the first month of administration of the preparation was determined weekly, and then once in two weeks. On the basis of the dynamics of an index of the mass of the animal body, the volume of preparation being administered was corrected taking into account the test dose.
# [5] = Administration of morphine and compound
# [6] = 15.0 mg/kg intravenously, after 15 minutes, control 37.0 ± 0.2
# [7] = 15.0 mg/kg intravenously, after 30 minutes, control 37.0 ± 0.2
# [8] = 15.0 mg/kg intravenously, after 60 minutes, control 37.0 ± 0.2
# [9] = 15.0 mg/kg intravenously, after 120 minutes, control 37.0 ± 0.2
# [10] = 30.0 mg/kg intravenously, after 15 minutes, control 33.3 ± 0.8
# [11] = 30.0 mg/kg intravenously, after 30 minutes, control 33.3 ± 0.8
# [12] = 30.0 mg/kg intravenously, after 60 minutes, control 33.3 ± 0.8
# [13] = 30.0 mg/kg intravenously, after 120 minutes, control 33.3 ± 0.8
# [14] = 60.0 mg/kg intravenously, after 15 minutes, control 32.5 ± 0.3
# [15] = 60.0 mg/kg intravenously, after 30 minutes, control 32.5 ± 0.3
# [16] = 60.0 mg/kg intravenously, after 60 minutes, control 32.5 ± 0.3
# [17] = 60.0 mg/kg intravenously, after 120 minutes, control 32.5 ± 0.3
structure (smiles),measurement,setting,value
"Nc1cccc2c(=O)[nH][nH]c(=O)c12.[Na] [Compound 15, sodium salt of 5-amino-benzo[d]-3H-pyridazine-1,4-dione]",Nitrites in liver,[1]; Control + Compound,0.259 ± 0.019 nmol/mg of protein
same,Nitrites in brain: Cortex of cerebrum,[1]; Control + Compound,4.31 ± 0.37 nmol/mg of protein
same,Nitrites in brain: Mesencephalon,[1]; Control + Compound,6.65 ± 0.70 nmol/mg of protein
same,Nitrites in brain: Hypothalamus,[1]; Control + Compound,6.77 ± 0.83 nmol/mg of protein
same,Nitrites in blood plasma,[1]; Control + Compound,14.39 ± 0.84 mkmol/ml
same,Nitrites in liver,[1]; Control + Morphine + compound,0.285 ± 0.02 nmol/mg of protein
same,Nitrites in brain: Cortex of cerebrum,[1]; Control + Morphine + compound,4.72 ± 0.37 nmol/mg of protein
same,Nitrites in brain: Mesencephalon,[1]; Control + Morphine + compound,5.50 ± 0.43 nmol/mg of protein
same,Nitrites in brain: Hypothalamus,[1]; Control + Morphine + compound,6.57 ± 0.88 nmol/mg of protein
same,Nitrites in blood plasma,[1]; Control + Morphine + compound,13.91 ± 1.91 mkmol/ml
same,Nitrites in thymus supernatant,[2]; Administration of compounds,0.407 ± 0.02 nmol/mg of protein
same,Thymus mass,[2]; Administration of compounds,298 ± 25 mg
same,Nitrites in thymus supernatant,[2]; [5],0.383 ± 0.02 nmol/mg of protein
same,Thymus mass,[2]; [5],214 ± 12 mg
same,"PATT, T",[3]; [6],37.0 ± 0.1 s
same,"PATT, T",[3]; [7],37.0 ± 0.2 s
same,"PATT, T",[3]; [8],36.9 ± 0.1 s
same,"PATT, T",[3]; [9],37.0 ± 0.3 s
same,"PATT, T",[3]; [10],32.9 ± 0.8 s
same,"PATT, T",[3]; [11],32.1 ± 0.1 s
same,"PATT, T",[3]; [12],32.0 ± 0.2 s
same,"PATT, T",[3]; [13],32.0 ± 0.1 s
same,"PATT, T",[3]; [14],32.2 ± 0.1 s
same,"PATT, T",[3]; [15],32.2 ± 0.1 s
same,"PATT, T",[3]; [16],32.1 ± 0.2 s
same,"PATT, T",[3]; [17],32.2 ± 0.1 s
same,effect on the PATT,[3],do not affect the PATT
same,Cholesterol in blood serum,[4]; 50 mg/kg,2.01 ± 0.50 mmol/L
same,Urea in blood serum,[4]; 50 mg/kg,10.33 ± 0.51 Mkmol/l
same,Glucose in blood serum,[4]; 50 mg/kg,10 ± 0.41 mM
same,ALT in blood serum,[4]; 50 mg/kg,7.63 ± 1.95 unit/l
same,AST in blood serum,[4]; 50 mg/kg,19.49 ± 2.90 unit/1
same,Bilirubin in blood serum,[4]; 50 mg/kg,43.07 ± 3.57 mmol/L
same,Creatinine in blood serum,[4]; 50 mg/kg,45.59 ± 2.68 mkmol/l
same,Alkalinous phosphatase in blood serum,[4]; 50 mg/kg,40.74 ± 6.78 unit/l
same,Total protein in blood serum,[4]; 50 mg/kg,90.22 ± 6.78 g/L
same,Cholesterol in blood serum,[4]; 500 mg/kg,2.30 ± 0.57 mmol/L
same,Urea in blood serum,[4]; 500 mg/kg,10.89 ± 0.73 Mkmol/l
same,Glucose in blood serum,[4]; 500 mg/kg,10.7 ± 0.41 mM
same,ALT in blood serum,[4]; 500 mg/kg,9.48 ± 1.85 unit/l
same,AST in blood serum,[4]; 500 mg/kg,15.14 ± 1.58 unit/1
same,Bilirubin in blood serum,[4]; 500 mg/kg,40.69 ± 15.75 mmol/L
same,Creatinine in blood serum,[4]; 500 mg/kg,48.27 ± 12.29 mkmol/l
same,Alkalinous phosphatase in blood serum,[4]; 500 mg/kg,41.60 ± 2.26 unit/l
same,Total protein in blood serum,[4]; 500 mg/kg,71.56 ± 8.23 g/L
"O=c1[nH][nH]c(=O)c2c(Br)ncnc12.[K] [Compound 37, potassium salt of 4-bromine-pyrimido[4,5-D]-6H-pyridazine-5,8-dione]",Nitrites in liver,[1]; Control + Compound,0.262 ± 0.018 nmol/mg of protein
same,Nitrites in brain: Cortex of cerebrum,[1]; Control + Compound,4.36 ± 0.24 nmol/mg of protein
same,Nitrites in brain: Mesencephalon,[1]; Control + Compound,6.84 ± 0.56 nmol/mg of protein
same,Nitrites in brain: Hypothalamus,[1]; Control + Compound,6.79 ± 0.92 nmol/mg of protein
same,Nitrites in blood plasma,[1]; Control + Compound,16.13 ± 1.80 mkmol/ml
same,Nitrites in liver,[1]; Control + Morphine + compound,0.274 ± 0.01 nmol/mg of protein
same,Nitrites in brain: Cortex of cerebrum,[1]; Control + Morphine + compound,4.77 ± 0.28 nmol/mg of protein
same,Nitrites in brain: Mesencephalon,[1]; Control + Morphine + compound,5.63 ± 0.37 nmol/mg of protein
same,Nitrites in brain: Hypothalamus,[1]; Control + Morphine + compound,6.52 ± 0.83 nmol/mg of protein
same,Nitrites in blood plasma,[1]; Control + Morphine + compound,15.33 ± 0.87 mkmol/ml
same,Nitrites in thymus supernatant,[2]; Administration of compounds,0.410 ± 0.01 nmol/mg of protein
same,Thymus mass,[2]; Administration of compounds,263 ± 21 mg
same,Nitrites in thymus supernatant,[2]; [5],0.387 ± 0.01 nmol/mg of protein
same,Thymus mass,[2]; [5],228 ± 15 mg
same,"PATT, T",[3]; [6],37.0 ± 0.2 s
same,"PATT, T",[3]; [7],37.1 ± 0.1 s
same,"PATT, T",[3]; [8],37.0 ± 0.2 s
same,"PATT, T",[3]; [9],36.9 ± 0.1 s
same,"PATT, T",[3]; [10],33.1 ± 0.1 s
same,"PATT, T",[3]; [11],33.3 ± 0.1 s
same,"PATT, T",[3]; [12],33.3 ± 0.2 s
same,"PATT, T",[3]; [13],33.0 ± 0.4 s
same,"PATT, T",[3]; [14],32.5 ± 0.1 s
same,"PATT, T",[3]; [15],32.3 ± 0.2 s
same,"PATT, T",[3]; [16],32.4 ± 0.1 s
same,"PATT, T",[3]; [17],32.6 ± 0.3 s
same,effect on the PATT,[3],do not affect the PATT
same,Cholesterol in blood serum,[4]; 50 mg/kg,2.48 ± 0.62 mmol/L
same,Urea in blood serum,[4]; 50 mg/kg,9.36 ± 0.62 Mkmol/l
same,Glucose in blood serum,[4]; 50 mg/kg,9.9 ± 0.51 mM
same,ALT in blood serum,[4]; 50 mg/kg,8.98 ± 2.43 unit/l
same,AST in blood serum,[4]; 50 mg/kg,19.97 ± 2.78 unit/1
same,Bilirubin in blood serum,[4]; 50 mg/kg,42.17 ± 3.28 mmol/L
same,Creatinine in blood serum,[4]; 50 mg/kg,46.84 ± 2.92 mkmol/l
same,Alkalinous phosphatase in blood serum,[4]; 50 mg/kg,41.86 ± 5.26 unit/l
same,Total protein in blood serum,[4]; 50 mg/kg,89.44 ± 7.22 g/L
same,Cholesterol in blood serum,[4]; 500 mg/kg,2.64 ± 0.46 mmol/L
same,Urea in blood serum,[4]; 500 mg/kg,10.57 ± 0.56 Mkmol/l
same,Glucose in blood serum,[4]; 500 mg/kg,10.9 ± 0.84 mM
same,ALT in blood serum,[4]; 500 mg/kg,9.56 ± 1.34 unit/l
same,AST in blood serum,[4]; 500 mg/kg,18.21 ± 1.87 unit/1
same,Bilirubin in blood serum,[4]; 500 mg/kg,41.45 ± 7.18 mmol/L
same,Creatinine in blood serum,[4]; 500 mg/kg,47.13 ± 9.82 mkmol/l
same,Alkalinous phosphatase in blood serum,[4]; 500 mg/kg,42.18 ± 2.34 unit/l
same,Total protein in blood serum,[4]; 500 mg/kg,70.88 ± 7.24 g/L
